# Source: PubChem BioAssay (NCI)
# Several values for one entry are separate records, joined by “and”; a condition that tells them apart may be missing. Identical values can stand only once.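 48-hour exposure; five concentrations; linearly interpolated endpoints. Abbreviation: GI50, concentration required for 50% inhibition of growth. TGI: total growth inhibition.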
# Tests used:
# Experiment in all cases: NCI-60 cell line screen, 48 h
# K-562 leukemia = system: K-562 leukemia
# HS 578T breast = system: HS 578T breast
# LOX IMVI melanoma = system: LOX IMVI melanoma
# SN12C renal = system: SN12C renal
# SK-MEL-2 melanoma = system: SK-MEL-2 melanoma
# NCI-H522 lung = system: NCI-H522 lung
# U251 CNS = system: U251 CNS
# HCT-15 colon = system: HCT-15 colon
# SF-539 CNS = system: SF-539 CNS
# SK-MEL-28 melanoma = system: SK-MEL-28 melanoma
Structure (SMILES),GI50 (K-562 leukemia) [µM],TGI (K-562 leukemia) [µM],GI50 (HS 578T breast) [µM],TGI (HS 578T breast) [µM],GI50 (LOX IMVI melanoma) [µM],TGI (LOX IMVI melanoma) [µM],GI50 (SN12C renal) [µM],TGI (SN12C renal) [µM],GI50 (SK-MEL-2 melanoma) [µM],TGI (SK-MEL-2 melanoma) [µM],GI50 (NCI-H522 lung) [µM],TGI (NCI-H522 lung),GI50 (U251 CNS) [µM],TGI (U251 CNS) [µM],GI50 (HCT-15 colon) [µM],TGI (HCT-15 colon) [µM],GI50 (SF-539 CNS) [µM],TGI (SF-539 CNS),GI50 (SK-MEL-28 melanoma) [µM],TGI (SK-MEL-28 melanoma) [µM]
NC1=NC(c2ccccc2Cl)c2c(n[nH]c2N)N1 (configuration not stated),4.52,> 100,> 100,> 100,2.98,> 100,8.35,> 100,65.3,> 100,19.6,> 100 µM,28,> 100,30.8,> 100,57,> 100 µM,42.5,> 100
N#CN1CC[C@H](C(=O)Nc2ncc(-c3ccccc3)s2)C1,0.455,11,0.811,5.05,0.267,1.65,0.471,7.24,0.274,0.726,0.205,0.547 µM,0.545,5.15,0.312,3.65,0.294,1.38 µM,1.09,3.01
Nc1nc(Cl)c2ncn(Cc3ccc(C45CC6CC(CC(C6)C4)C5)c(OCc4cc(F)c(F)cc4F)c3)c2n1,–,–,12.1,71.3,1.88,8.64,3.05,11.3,5.84,20.4,2.8,12.3 µM,3.04,16.3,3.57,14.1,4.18,14.8 µM,8.12,26.3
[O-][n+]1c2cccc(O)c2[n+]([O-])c2cccc(O)c21,–,> 100,–,> 100,–,> 100,–,–,–,–,–,> 100 µM,–,> 100,–,> 100,–,> 100 µM,–,–
C/C(=C/CCC(C)[C@@H]1CC[C@]2(C)C3=C(CC[C@@]12C)[C@@]1(C)CCC(=O)C(C)(C)[C@@H]1CC3)C(=O)O (some centres not stated),–,–,1.45,3.4,0.961,2.49,1.21,2.89,1.26,2.89,0.728,2.21 µM,0.817,2.29,0.974,3,1.37,2.93 µM,1.42,2.82
O=[N+]([O-])/C=C/c1ccc2ccccc2c1,–,9.42,–,> 61.8,–,7.81,–,22.7,–,> 61.6,–,33.1 µM,–,3.08,–,–,–,> 100 µM,–,4.65
COc1cccc(-c2cc(=O)c3cc(N4CCN(C)CC4)ccc3[nH]2)c1,0.492,6.22,–,4.88,2.11,–,4.68,> 100,3.16,> 100,1.02,4.28 µM and 3.79 µM,–,–,2.44,–,1.5,2.36 µM and 7.13 µM,3.99,> 100
